Laboratory results as given in patent publication US20200345637A1, “SUSPENSION COMPOSITIONS OF MULTI-TARGET INHIBITORS” (AIVIVA BIOPHARMA, INC., priority 2018, published 2020).
Converted amounts (≈) assume the structure as drawn. “And” between values parts separate entries of the source, which are not always exact repeats. Identical values can stand only once. Like-named read-outs stand apart in the source and are kept apart here.

Assays:
[1] = Suspension physical testing: particle size, pH, osmolality, syringeability; type: physicochemical; design: API Raw Material PSD D50 / Formulated Suspension Particle size distribution D50 / API Raw Material PSD D90 / Formulated Suspension Particle size distribution D90: unit not given here; conditions: for Formulated Suspension Syringeability: needle gauge passed
From the text: (§1) Examples 1-3 depict the results of physical testing of some subject formulations.

[2] = Aqueous solubility of multi-target inhibitors; type: physicochemical; conditions: for solubility: aqueous (not further specified)
From the text: Non-limiting examples of the useful multi-target inhibitors and their physicochemical forms are given in Table 1 with aqueous solubility information.

[3] = Terminal sterilization and stability assay of formulated suspension; type: physicochemical; conditions: for Assay (% of labeled claim) of Formulated Suspension, 4 months (40° C./75% RH) / Assay (% of labeled claim) of Formulated Suspension, 6 weeks (40° C./75% RH) / Assay (% of labeled claim) of Formulated Suspension, Initial: Gamma irradiation
From the text: as §1

[4] = rat, in vivo
Method: (§2) This study investigated the pharmacokinetics and distribution of axitinib, sorafenib, pirfenidone, and riociguat after intraprostate injections in Wistar rats (n=6-7 per treatment group). Axitinib, sorafenib and riociguat, as 1% w/w suspension, and pirfenidone as 2.5% suspension were administered as single intraprostate injection (a total of 0.2 mL) on Days 15 and 29 in this 42-day study.

[5] = Pharmacokinetics and distribution after intraprostate injections in rats (Example 8); conditions: for Plasma concentrations Mean: intraprostate injection
Method: as §2

[6] = Skin pharmacokinetics after single intradermal injection in minipigs; conditions: over 28 days
Method: Pharmacokinetics of axitinib and nintedanib was investigated after a single intradermal injection of 0.1% and 1% suspensions to the dorsum of Yucatan minipigs. The dosing volume was 0.1 mL for each injection. Concentrations of drugs in the epidermis and dermis over 28 days at the injection site and at 2 cm away from the injection site were measured using LCMS/MS method.

[7] = test system: linear incision wound sites; test: Intradermal injection along linear incision wounds, histological evaluation; type: in vivo, minipigs; conditions: for granulation tissue formation compared to vehicle treated control wounds / presence of myofibroblasts compared to vehicle treated control wounds: 2% suspension (sorafenib 1% suspension); for SMA staining / dermis fibrin / dermis fibroplasia / dermis provisional matrix / epidermis hyperplasia / inflammation / subcutis fibroplasia / subcutis mixed cell infiltrate: microscopic grade over 29 days
Method: The purpose of this study was to evaluate the suspension formulation when administered via intradermal injection with axitinib, nintedanib, sorafenib, and lenvatinib to the dorsal skin along linear incisions of minipigs.
Four male minipigs were dosed. Animals were dosed once via intradermal injection along the edges of each of 10 wound sites for each animal (5 wounds on each side of the dorsum [perpendicular to the spine], approximately 3 cm in length and 3 cm distance from the spine). Axitinib, nintedanib, lenvatinib, and the vehicle control article were administered via eight 0.1 mL intradermal injections around each respective wound site (one injection/cm on both sides of the wound), for a total volume of 0.8 mL/wound site. Sorafenib was administered via the same method at a volume of 0.2 mL/injection, for a total volume of 1.6 mL/wound site. The vehicle control article was Vehicle for Test Articles axitinib, nintedanib, lenvatinib, and sorafenib.
A generalized measure of inflammation, including inflammatory cell infiltrate, fibrin deposition, fibroplasia, epithelial hyperplasia and areas of tissue necrosis were assessed microscopically. […] For test agent treated wounds, all were graded as slight on Day 4, and there was no consistent difference over time as compared to the control group.

[8] = Local tolerance and ocular distribution, topical instillation three times daily for 5 days
Method: (§3) This study evaluated the local tolerance of vehicle, axitinib, pirfenidone, sorafenib and lenvatinib and ocular distribution of axitinib, sorafenib and lenvatinib (0.3% w/w) when administered by topical ocular instillation in the eyes of New Zealand white rabbits (n=6 per group). […] On Dosing Day 5, the animals were sacrificed and eyes were enucleated. Ocular and plasma concentrations of select compounds were measured by LC-MS/MS.

[9] = systemic; literature or US label; cited from earlier work
[10] = rabbit, in vivo
Method: as §3

[11] = two weeks after the second biweekly intraprostate injection

| Compound | API Raw Material PSD D50 [1] | API Raw Material PSD D90 [1] | Formulated Suspension Osmolality [1] [mOsm/kg] | Formulated Suspension Particle size distribution D50 [1] | Formulated Suspension Particle size distribution D90 [1] | Formulated Suspension pH [1] | Formulated Suspension Syringeability [1] | solubility [2] [µg/mL] | drug concentration in prostate [4] | drug release from prostate into systemic circulation [4] | Plasma concentrations Mean ([5]; Study Day 15, 24 h) [ng/mL] | Plasma concentrations Mean ([5]; Study Day 29, 24 h) [ng/mL] | Plasma concentrations Mean ([5]; Study Day 42, 0 h) | Prostate concentrations Mean [5, 11] [µg/g] | Assay (% of labeled claim) of Formulated Suspension, 4 months (40° C./75% RH) [3] | Assay (% of labeled claim) of Formulated Suspension, 6 weeks (40° C./75% RH) [3] | Assay (% of labeled claim) of Formulated Suspension, Initial ([3]; initial) | granulation tissue formation compared to vehicle treated control wounds [7] | presence of myofibroblasts compared to vehicle treated control wounds [7] | SMA staining [7] | also measured |
| --- | --- | --- | --- | --- | --- | --- | --- | --- | --- | --- | --- | --- | --- | --- | --- | --- | --- | --- | --- | --- | --- |
| CNC(=O)c1ccccc1Sc1ccc2c(/C=C/c3ccccn3)n[nH]c2c1 [Axitinib] | D50: 5.5 | D90: 9.9 | 206 | D50: 5.8 | D90: 15.6 | 7.6 | Pass 25G | 2 (≈ 5.17 µM) | remained high | prolonged drug release | 1.72 | 1.49 | 0.33 ng/mL | 718 | 95.2 % of labeled claim and 100.9 % of labeled claim | 97.8 % of labeled claim and 98.5 % of labeled claim | 102.0 % of labeled claim and 100.7 % of labeled claim | delay in granulation tissue formation | prolonged presence of myofibroblasts | minimal to moderate | mean concentration in the dermis, 2 cm away from the injection site ([6]; 0.1% intradermal injection): 1.2-8 ng/gm; mean concentration in the epidermis, 2 cm away from the injection site ([6]; 0.1% intradermal injection): 4.5-55.2 ng/gm; mean concentration in the dermis, 2 cm away from the injection site ([6]; 1% intradermal injection): 2.9-150 ng/gm; mean concentration in the epidermis, 2 cm away from the injection site ([6]; 1% intradermal injection): 42.3-723 ng/gm; dermis fibrin [7]: slight to moderate; dermis fibroplasia [7]: none to slight; dermis provisional matrix [7]: marked to moderate; epidermis hyperplasia [7]: minimal to slight; inflammation [7]: slight to moderate; subcutis fibroplasia [7]: none to moderate; subcutis mixed cell infiltrate [7]: moderate to minimal; concentration at 5 day of dosing ([8]; New Zealand White, rabbit, plasma, topical, 35 μl eyedrop of 0.3% w/w to the right eye, three times daily): 0.29 ng/mL; Assay (% of labeled claim) of Formulated Suspension, 4 months (40° C./75% RH) (bottom) ([3]; Autoclave, bottom, tested at 3 months instead of 4 months, 40° C./75% RH): 103.2 % of labeled claim; Assay (% of labeled claim) of Formulated Suspension, Initial (bottom) ([3]; Autoclave, initial, bottom): 100.1 % of labeled claim; Assay (% of labeled claim) of Formulated Suspension, Initial (top) ([3]; Autoclave, initial, top): 98.7 % of labeled claim; Assay (% of labeled claim) of Formulated Suspension, 4 months (40° C./75% RH) (top) ([3]; Autoclave, top, tested at 3 months instead of 4 months, 40° C./75% RH): 101.2 % of labeled claim; terminal plasma half-life in man [9]: 2 to 5 h; concentrations in the choroid and retina [10]: significant concentrations; drug concentrations in anterior tissues of conjunctiva, sclera and cornea [10]: high drug concentrations |
| CNC(=O)c1cc(Oc2ccc(NC(=O)Nc3ccc(Cl)c(C(F)(F)F)c3)c(F)c2)ccn1 [regorafenib, Regorafenib] |  |  |  |  |  |  |  |  |  |  |  |  |  |  |  |  |  |  |  |  | terminal plasma half-life in man [9]: 28 h |

Continued, in another order:

| API Raw Material PSD D50 [1] | API Raw Material PSD D90 [1] | Formulated Suspension Osmolality [1] [mOsm/kg] | Formulated Suspension Particle size distribution D50 [1] | Formulated Suspension Particle size distribution D90 [1] | Formulated Suspension pH [1] | Formulated Suspension Syringeability [1] | solubility [2] [µg/mL] | drug concentration in prostate [4] | drug release from prostate into systemic circulation [4] | Plasma concentrations Mean ([5]; Study Day 15, 24 h) [ng/mL] | Plasma concentrations Mean ([5]; Study Day 29, 24 h) [ng/mL] | Plasma concentrations Mean ([5]; Study Day 42, 0 h) | Prostate concentrations Mean [5, 11] [µg/g] | Compound | Assay (% of labeled claim) of Formulated Suspension, 4 months (40° C./75% RH) [3] | Assay (% of labeled claim) of Formulated Suspension, 6 weeks (40° C./75% RH) [3] | Assay (% of labeled claim) of Formulated Suspension, Initial ([3]; initial) | granulation tissue formation compared to vehicle treated control wounds [7] | presence of myofibroblasts compared to vehicle treated control wounds [7] | SMA staining [7] | also measured |
| --- | --- | --- | --- | --- | --- | --- | --- | --- | --- | --- | --- | --- | --- | --- | --- | --- | --- | --- | --- | --- | --- |
| D50: 16 | D90: 29 | 201 | D50: 9 | D90: 17 | 7.6 | Pass 27G | 8 (≈ 18.9 µM) | remained high | prolonged drug release |  |  |  |  | COC(=O)N(C)c1c(N)nc(-c2nn(Cc3ccccc3F)c3ncccc23)nc1N [Riociguat] | 99.9 % of labeled claim and 99.7 % of labeled claim | 98.7 % of labeled claim and 98.0 % of labeled claim | 101.9 % of labeled claim and 100.6 % of labeled claim |  |  |  | Prostate concentrations Mean ([4]; male, Wistar, 2 weeks after the second injection): 492 µg/g |
| D50: 25 | D90: 52 | 201 | D50: 12 | D90: 26 | 7.6 | Pass 25G | 7 (≈ 17.6 µM) |  |  |  |  |  |  | CCN(CC)CCNC(=O)c1c(C)[nH]c(/C=C2\C(=O)Nc3ccc(F)cc32)c1C [Sunitinib] | 100.0 % of labeled claim and 95.6 % of labeled claim | 98.9 % of labeled claim and 96.5 % of labeled claim | 96.7 % of labeled claim and 95.1 % of labeled claim |  |  |  |  |
| D50: 57 | D90: 74 | 312 | D50: 44 | D90: 72 | 7.6 | Pass 23G | 3000 (≈ 16200 µM) |  |  | 0.381 | 0.454 | BLQ | 0.014 | Cc1ccc(=O)n(-c2ccccc2)c1 [Pirfenidone] | 91.5 % of labeled claim and 94.9 % of labeled claim | 89.9 % of labeled claim and 95.7 % of labeled claim | 90.9 % of labeled claim and 97.2 % of labeled claim |  |  |  |  |
| D50: 18 | D90: 39 | 216 | D50: 11 | D90: 20 | 7.3 | Pass 27G |  |  |  |  |  |  | 892 | CNC(=O)c1cc(Oc2ccc(NC(=O)Nc3ccc(Cl)c(C(F)(F)F)c3)cc2)ccn1.Cc1ccc(S(=O)(=O)O)cc1 [Sorafenib Hemi Tosylate] | 99.9 % of labeled claim and 99.6 % of labeled claim | 100.7 % of labeled claim and 100.4 % of labeled claim | 98.9 % of labeled claim and 101.6 % of labeled claim | delay in granulation tissue formation | prolonged presence of myofibroblasts | slight to minimal | dermis fibrin [7]: minimal to none; dermis fibroplasia [7]: minimal to slight; dermis provisional matrix [7]: slight to none; epidermis hyperplasia [7]: none; inflammation [7]: moderate to minimal; subcutis fibroplasia [7]: minimal to moderate; subcutis mixed cell infiltrate [7]: slight to marked; Aqueous Solubility [2]: 6 µg/mL; concentrations in the choroid and retina ([8]; 0.3% w/w topical instillation): significant concentrations; drug concentrations in anterior tissues of conjunctiva, sclera and cornea ([8]; 0.3% w/w topical instillation): high drug concentrations; plasma concentrations, mean (±SD) ([8]; Day 5 of dosing, 0.3% w/w 35 μl eyedrop three times daily): 5.09 (±1.27) ng/mL; drug release from prostate into systemic circulation ([5]; after single intraprostate injections): prolonged drug release; drug concentration in prostate [5, 11]: remained high |
